pIC50: −log10 of the molar value.

The subject of one data set is Cyp1a1. As to the kind of experiment: Cyp1a1 mRNA in rat small intestine (jejunum). Format: in vivo. As for the experimental part:
All animal experiments were conducted in accordance with the Guiding Principles in the Use of Animals in Toxicology (http://www.toxicology.org/ai/air/air6.asp) and were approved by Abbott's Institutional Animal Care and Use Committee (IACUC). Male Sprague-Dawley rats [Crl:CD®(SD)IGS BR], weighing ~250 g at study initiation were obtained from Charles River Laboratories, Inc. (Wilmington, MA). Rats were housed singly in ventilated, stainless steel, wire-bottom hanging cages and fed non-certified Rodent Chow (Harlan Labs, Madison, WI), and water ad libitum and acclimated for at least 5 days after arrival. […] Serum clinical chemistry parameters were quantified using an Aeroset Clinical Chemistry Analyzer (Abbott Laboratories, Abbott Park, IL) and included alanine amino transferase (ALT), aspartate amino transferase (AST), gamma glutamyltransferase (GGT), and alkaline phosphatase (ALP) activities.
Frozen liver or jejunum were immediately added to 4 ml of TRIzol reagent (Invitrogen Life Technologies) and homogenized using a Polytron 300D homogenizer (Brinkman Instruments, Westbury, NY). […] Nucleic acid concentration was determined by OD 260 nm (Smart-Spec, Bio-Rad Laboratories, Hercules, CA), and RNA integrity was evaluated using an Agilent 2100 bioanalyzer (Agilent Technologies, Foster City, CA). […]

The next data set has as its target T1, rat Cyp1a2 (Rattus norvegicus, UniProt P04799).
T1 construct: purchased BD Gentest; host or cells: baculovirus infected insect cells
The experiment in a line: Recombinant rat Cyp phenotype profiling, 1A2. The settings on record: 60 min. In kind it is in vitro ADME. The procedure:
(§1) Identification of the drug metabolizing enzymes (DMEs) of A-998679 was studied in cDNA expressed recombinant enzymes prepared from baculovirus infected insect cells over-expressing rat Cyp isoforms (BD Gentest, Woburn, MA) as listed in Table 2. Incubations were conducted in duplicate using Supersomes. The incubation mixture contained 100 pmol/ml of enzymes, except for Cyp1a1 (200 pmol/ml), 0.1 or 0.21 μM of [^3H]A-998679 in 100 mM phosphate buffer (pH 7.4). Reactions were initiated with the addition of NADPH at a final concentration of 1 mM and incubated at 37°C for 60 min. At the end of the incubation period, the incubations were terminated by the addition of acetonitrile/ethanol (50/50, v/v) solution. Insect control samples lacking expressed enzyme were used as negative control. The degree of metabolism of A-998679 was assessed by percent of parent remaining using the radio-HPLC method described below.
(§2) Radiolabeled components from the above assays were profiled following separation by HPLC with on line radioflow detector. The system consisted of an Agilent 1100 Series quaternary pump and autosampler connected to a Packard 500TR flow scintillation detector. The data were processed using the Radiomatic™ Flo-one® software v3.65. The scintillant (Perkin Elmer FLO-SCINT™ III) flow was maintained at 3 ml/min. […]

The next data set has as its target T2, rat Cyp2c11 (Rattus norvegicus, UniProt P08683).
T2 construct: purchased BD Gentest; host or cells: baculovirus infected insect cells
The experiment in a line: Recombinant rat Cyp phenotype profiling, 2C11. Format: in vitro ADME. The settings on record: 60 min. The procedure: as §1, §2

In a further data set the target is T3, rat Cyp 2C12 (Rattus norvegicus, UniProt P11510).
T3 construct: purchased BD Gentest; host or cells: baculovirus infected insect cells
T3 sequence (P11510 whole entry): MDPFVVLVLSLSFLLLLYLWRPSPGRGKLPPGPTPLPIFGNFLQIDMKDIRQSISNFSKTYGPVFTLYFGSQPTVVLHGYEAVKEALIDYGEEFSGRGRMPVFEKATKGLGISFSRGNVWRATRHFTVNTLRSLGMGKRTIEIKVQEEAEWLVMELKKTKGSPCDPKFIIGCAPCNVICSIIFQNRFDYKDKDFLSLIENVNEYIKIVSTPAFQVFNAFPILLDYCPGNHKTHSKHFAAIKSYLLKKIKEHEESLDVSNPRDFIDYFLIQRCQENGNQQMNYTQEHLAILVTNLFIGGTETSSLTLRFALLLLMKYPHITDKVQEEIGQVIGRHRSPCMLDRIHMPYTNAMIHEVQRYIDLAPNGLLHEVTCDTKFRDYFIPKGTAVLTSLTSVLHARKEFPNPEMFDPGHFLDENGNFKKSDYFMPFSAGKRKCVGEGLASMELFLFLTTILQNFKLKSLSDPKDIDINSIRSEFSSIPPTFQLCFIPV
The experiment in a line: Recombinant rat Cyp phenotype profiling, 2C12. The settings on record: 60 min. In kind it is in vitro ADME. As for the experimental part:
as §1, §2

Another data set has as its target T4, CYP2D6 (Homo sapiens, UniProt P10635).
T4 construct: from tissue; host or cells: human liver microsomes
As to the kind of experiment: CYP inhibition evaluation in human liver microsomes, CYP2D6 (dextromethorphan). In kind it is in vitro ADME. Particulars: probe substrate dextromethorphan. The procedure:
(§3) Incubations were performed in human liver microsomes using probe substrate concentrations similar to their corresponding Km values. Enzyme activity was evaluated in the presence of various concentrations of A-998679. The incubations consisted of the test article at varying concentrations (0–30 μM), probe substrate (concentration ~Km, see Table A2), human liver microsomal protein and 1 mM NADPH in 50 mM phosphate buffer at pH 7.4. Relative quantitation of the metabolites was obtained by LC-MS/MS using an ABSciex (Foster City, CA) API3000 or API4000 Qtrap hybrid linear ion trap mass spectrometer equipped with a TurboIonspray source using either PerkinElmer series 200 pumps or Agilent 1100 series pump with a Leap autosampler. Analytes were separated using a Phenomenex Prodigy ODS(3) 5 μm, 50 × 2.0 mm column at 50°C, eluted and detected under the specific conditions listed in Tables A3, A4, and A5. The analyte to internal standard peak area ratios were determined using Analyst 1.4 software (Applied Biosytems, Carlsbad, CA). The peak area ratios observed in the presence of test article were compared to the vehicle control in order to determine percent activity. To determine the IC50, the data were plotted as Log [dose] μM vs. % inhibition, and analyzed with a sigmoidal dose-response (variable slope) fitting equation. […]

The target in a further data set is T5, CYP3A4 (Homo sapiens, UniProt P08684).
T5 construct: from tissue; host or cells: human liver microsomes
T5 sequence (P08684 whole entry): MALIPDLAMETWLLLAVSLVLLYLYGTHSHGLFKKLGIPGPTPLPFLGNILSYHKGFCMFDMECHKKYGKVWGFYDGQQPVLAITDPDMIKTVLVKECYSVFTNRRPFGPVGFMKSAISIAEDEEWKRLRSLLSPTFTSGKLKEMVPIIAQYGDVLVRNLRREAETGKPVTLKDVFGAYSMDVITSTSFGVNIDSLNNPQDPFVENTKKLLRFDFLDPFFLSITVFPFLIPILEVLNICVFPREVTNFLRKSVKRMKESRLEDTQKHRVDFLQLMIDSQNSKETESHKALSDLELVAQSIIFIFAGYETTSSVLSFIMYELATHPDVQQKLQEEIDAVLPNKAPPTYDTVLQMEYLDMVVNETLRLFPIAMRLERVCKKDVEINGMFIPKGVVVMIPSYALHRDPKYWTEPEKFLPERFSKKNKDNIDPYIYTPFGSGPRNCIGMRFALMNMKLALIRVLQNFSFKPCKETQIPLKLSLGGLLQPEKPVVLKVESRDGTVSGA
The experiment in a line: CYP inhibition evaluation in human liver microsomes, CYP3A4 (midazolam). Format: in vitro ADME. The settings on record: probe substrate midazolam. The procedure:
as §3
Background: Microsomes from liver hold many membrane-bound enzymes, among them those of drug oxidation.

T2 sequence (P08683 whole entry): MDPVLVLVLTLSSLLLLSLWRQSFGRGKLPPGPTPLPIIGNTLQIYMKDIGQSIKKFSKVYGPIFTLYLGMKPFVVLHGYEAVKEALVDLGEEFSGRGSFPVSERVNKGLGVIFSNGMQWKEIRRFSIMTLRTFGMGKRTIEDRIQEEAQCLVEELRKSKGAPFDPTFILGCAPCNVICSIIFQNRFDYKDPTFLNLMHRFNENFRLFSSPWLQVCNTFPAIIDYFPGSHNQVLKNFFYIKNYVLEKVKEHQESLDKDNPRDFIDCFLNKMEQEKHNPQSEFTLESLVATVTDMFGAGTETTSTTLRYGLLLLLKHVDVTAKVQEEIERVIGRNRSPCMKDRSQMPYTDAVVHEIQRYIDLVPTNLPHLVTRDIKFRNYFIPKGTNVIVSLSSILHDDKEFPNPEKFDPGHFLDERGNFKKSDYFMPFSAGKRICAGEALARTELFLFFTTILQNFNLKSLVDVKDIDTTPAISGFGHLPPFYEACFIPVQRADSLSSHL
T1 sequence (P04799 whole entry): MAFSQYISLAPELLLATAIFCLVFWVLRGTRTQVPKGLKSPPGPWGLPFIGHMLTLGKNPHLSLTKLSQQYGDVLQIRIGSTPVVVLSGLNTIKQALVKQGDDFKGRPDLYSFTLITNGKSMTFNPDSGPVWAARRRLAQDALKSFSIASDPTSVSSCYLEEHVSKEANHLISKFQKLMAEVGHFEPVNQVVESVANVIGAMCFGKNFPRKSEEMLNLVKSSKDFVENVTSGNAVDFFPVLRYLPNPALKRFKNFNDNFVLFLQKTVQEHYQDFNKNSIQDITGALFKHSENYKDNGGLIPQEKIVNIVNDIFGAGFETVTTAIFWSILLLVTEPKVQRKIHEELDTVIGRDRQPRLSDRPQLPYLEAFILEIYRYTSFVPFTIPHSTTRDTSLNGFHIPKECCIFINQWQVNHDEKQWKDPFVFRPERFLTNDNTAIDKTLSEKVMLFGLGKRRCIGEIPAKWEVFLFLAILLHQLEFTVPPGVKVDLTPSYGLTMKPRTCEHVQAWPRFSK
T4 sequence (P10635 whole entry): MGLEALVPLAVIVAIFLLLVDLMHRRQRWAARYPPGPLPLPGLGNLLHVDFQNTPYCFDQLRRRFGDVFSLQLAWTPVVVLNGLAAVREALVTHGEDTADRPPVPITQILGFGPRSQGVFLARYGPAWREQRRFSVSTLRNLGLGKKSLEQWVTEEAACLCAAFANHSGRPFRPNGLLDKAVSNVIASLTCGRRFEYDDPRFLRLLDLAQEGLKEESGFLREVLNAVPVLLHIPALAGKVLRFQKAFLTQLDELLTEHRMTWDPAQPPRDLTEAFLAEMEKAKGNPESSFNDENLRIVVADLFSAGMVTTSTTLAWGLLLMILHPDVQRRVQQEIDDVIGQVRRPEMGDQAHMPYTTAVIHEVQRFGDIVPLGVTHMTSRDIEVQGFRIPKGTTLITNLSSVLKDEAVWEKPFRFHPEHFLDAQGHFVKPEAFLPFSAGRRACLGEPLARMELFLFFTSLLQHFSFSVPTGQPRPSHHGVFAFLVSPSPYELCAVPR

For `N#Cc1cccc(-c2noc(-c3cccnc3)n2)c1` [A-998679, 3-(5-pyridin-3-yl-1,2,4-oxadiazol-3-yl) benzonitrile], the “Cyp1a1 mRNA expression in rat jejunum” value in the data set with Cyp1a1 (200 mg/kg) is listed as “significantly decreased”; in the data set with Cyp1a1 (30 and 100 mg/kg, high interindividual variability), “increased”. For the same compound, the “% parent remaining” value on rat Cyp1a2 (recombinant rat Cyp 1A2, 0.10 μM) is recorded as 0%; at rat Cyp1a2 (recombinant rat Cyp 1A2, 0.21 μM) it was 0%; on rat Cyp2c11 (recombinant rat Cyp 2C11, 0.10 μM) it was 78.1%; at rat Cyp2c11 (recombinant rat Cyp 2C11, 0.21 μM), 28.8%; at rat Cyp 2C12 (recombinant rat Cyp 2C12, 0.10 μM), 100%; on rat Cyp 2C12 (recombinant rat Cyp 2C12, 0.21 μM), 100%. For the same compound, the pIC50 at CYP2D6 and against CYP3A4 was less than 4.52 in each case.
